Results from patent US20080248076A1, “ANTIMICROBIAL RUBBER BANDS” (priority 2007, published 2008).
Where “and” joins values, the source holds several entries; their conditions need not be identical. Equal entries are not always repeated.

Columns and labels:
[1] = test system: all of the organisms tested (Escherichia coli, Staphylococcus aureus, Pseudomonas aeruginosa, Pasteurella multocida); assay: Growth Inhibitor Test, overall conclusion; type: cell-based; conditions: versus sodium hypochlorite at 100 ppm disinfection concentration
Source text: (§1) Test Scope: The Growth Inhibitor Test was used to determine the toxicity of a rubber band containing zinc pyrithione. Any presence of toxic residues in the test material (rubber band) will inhibit bacterial growth in the agar medium. A zone of inhibition or no growth of test organism around the test material indicates the presence of toxic residues in the test material. The intensity of inhibition is indicative of the concentration of the toxic agent.
(§2) Test Objective: Four (4) test organisms were used in this assay to determine toxicity. Each organism was suspended in specific agar medium, incubated at 35° C. for 48 hours, and then read to determine growth or no growth of test organism. Each test organism was grown individually in a Petri plate and the test material was planted unto the agar plate to determine the outcome. If no toxic residues were present in the test material, then the test bacteria grew around and under the test medium producing a “lawn effect.” If inhibitory substances were present in the test material, it would diffuse into the agar medium and prevent the growth of bacterial in the medium. The larger the zone of inhibition, the higher the concentration of toxic substances.
Test Organisms: The following four (4) organisms were employed: Escherichia coli, Staphylococcus aureus, Pseudomonas aeruginosa, and Pasteurella multocida. […]

Pseudomonas aeruginosa [2] = conditions: it has been reported; cited from earlier work
Escherichia coli = assay: Growth Inhibitor Test (zone of inhibition / kill zone on agar); type: cell-based; conditions: E. coli, Standard Methods Agar, 48 hours at 32.0° C; heading says test organism died, assay invalid; Sodium Hypochlorite @ 100 ppm on paper disc
Source text: as §1, §2
(§3) Test Organisms: The following four (4) organisms were employed: Escherichia coli, Staphylococcus aureus, Pseudomonas aeruginosa, and Pasteurella multocida. Each test organism's concentration was estimated to be 100,000 cfu to 1,000,000 cfu per milliliter.
(§4) Materials used included: 1. Baird Parker Agar for Staphylococcus aureus; 2. Standard Methods Agar for E. coli and Pseudomonas aeruginosa; 3. Tryptic Soy Agar for Pasteurella multocida; 4. 100 ppm chlorinated water to serve as a positive control; 5. Distilled water to serve as the negative control; 6. Quebec Colony Counter; 7. Incubator at 32.0 C; 8. Petri plates (85 mm diameter); 9. Vernier calibrators; 10.

Pasteurella multocida = assay: as above; type: cell-based; conditions: Tryptic Soy Agar, 48 hours at 32.0° C, rubber with 1000 ppm zinc pyrithione, Sodium Hypochlorite @ 100 ppm on paper disc
Source text: as §1, §2, §3, §4

Pseudomonas aeruginosa [3] = assay: as above; type: cell-based; conditions: Standard Methods Agar, 48 hours at 32.0° C, rubber with 1000 ppm zinc pyrithione, Sodium Hypochlorite @ 100 ppm on paper disc
Source text: as §1, §2, §3, §4

Staphylococcus aureus = assay: as above; type: cell-based; conditions: Baird Parker Agar, 48 hours at 32.0° C, rubber with 1000 ppm zinc pyrithione, Sodium Hypochlorite @ 100 ppm on paper disc
Source text: as §1, §2, §3, §4

With `[O-][n+]1ccccc1[S-].[O-][n+]1ccccc1[S-].[Zn+2]` [zinc pyrithione, zinc 2-pyridinethiol-n-oxide] the “toxicity compared with sodium hypochlorite (similar kill zones)” value [1] was “equal to the potency of sodium hypochlorite at 100 ppm”.

For `Oc1cc(Cl)ccc1Oc1ccc(Cl)cc1Cl` [triclosan], the “efficacy against Pseudomonas aeruginosa” value (Pseudomonas aeruginosa [2]) is listed as “little or no efficacy”.

For `OCl` [Sodium Hypochlorite], the “zone of inhibition or kill zone” value (Escherichia coli) was 1.6 cm and 1.4 cm, the “zone of inhibition or kill zone” value (Pasteurella multocida) was 3.5 cm and 3.2 cm and the kill zone (Pseudomonas aeruginosa [3]) was 3.1 cm and 3.0 cm. For the same compound, the “zone of inhibition or kill zone” value (Staphylococcus aureus) was 3.0 cm and 2.5 cm.
